{
  "source": "patent US20100189596A1",
  "about": "“COMPOSITE EMULSIFIER, AN EMULSION PREPARED FROM IT AND THE PREPARATION METHOD THEREOF” (SHENYANG PHARMACEUTICAL UNIVERSITY, priority 2007, published 2010)",
  "test_system": "adriamycin-induced myocardial injury model in rat",
  "experiment": "Protective effects on adriamycin-induced myocardial injury model in rat",
  "format": "in vivo, Wistar rats",
  "text": "Coenzyme Q10 can reduce the cardiotoxicity induced by adriamycin. In this experiment, to adriamycin-induced myocardial injury model in rat was constructed for detecting the effects of coenzyme Q10 nanoemulsion of protecting rats from adriamycin-induced myocardial injury.\n40 Wistar rats (250±15 g, F/M=1:1) were randomly divided into five groups (8 animals each group): negative control group, ADM group, ADM+coenzyme Q10 (low dosage) group, ADM+coenzyme Q10 (medium dosage) group and ADM+coenzyme Q10 (high dosage) group. The control group received intraperitoneal injection of physiological saline at 10 mL/kg/d for 9 days. The ADM group received intraperitoneal injection of ADM at 3 mg/kg every other day for 5 times in total (9 days). The ADM+coenzyme Q10 (low, medium and high dosages) groups respectively received tail vein injection of coenzyme Q10 at 1.5, 3.0 and 6.0 mg/kg/d for 9 days, and ADM was administered at 3 mg/kg every other day for 5 times in total (9 days) (10 min after coenzyme Q10 injection, intraperitoneal injection of ADM 3 mg/kg was performed). The rats were sacrificed on the 10th day for histopathological examination and detection for the contents of malonaldehyde and SOD. The histopathological examination was performed by the steps of taking myocardial tissue from the left ventricular, fixing with 10% formaldehyde, slicing according to the conventional methods, and staining with HE.",
  "key": {"[1]": {"details": "ADM group, 3 mg/kg i.p. x5, n = 8"}, "[2]": {"details": "ADM group: ADM 3 mg/kg i.p. every other day, 5 times, n = 8"}},
  "note": "Marks after values point to notes of the source that are not given here.",
  "data": [
    {"smiles": "COc1cccc2c1C(=O)c1c(O)c3c(c(O)c1C2=O)C[C@@](O)(C(=O)CO)C[C@@H]3O[C@H]1C[C@H](N)[C@H](O)[C@H](C)O1", "note": "[ADM, adriamycin]", "values": [
      {"measurement": "alterations of rat electrocardiogram", "setting": "ADM group (FIG. 2) compared with normal conditions", "result": "absent P-wave, flattened T-wave, obviously reduced ST-T segment, and decreased QRS waves"},
      {"measurement": "myocardial MDA (nmol/mg prot)", "setting": "[1]", "result": "8.99 ± 1.17^a nmol/mg prot"},
      {"measurement": "myocardial SOD (U/mg prot)", "setting": "[1]", "result": "330.02 ± 15.39^a U/mg prot"},
      {"measurement": "Pathological classification of myocardial injury: number of rats in grade II", "setting": "[2]", "result": 3},
      {"measurement": "Pathological classification of myocardial injury: number of rats in grade III", "setting": "[2]", "result": 5},
      {"measurement": "myocardial tissue slice (stained with HE)", "setting": "rats received intraperitoneal injection of ADM", "result": "seriously injured"}
    ]}
  ]
}
